Measurements published in US20090215883A1, “Pharmaceutical formulation comprising taxane, a solid composition of taxane, a process for preparing said solid composition of taxane, a solubilizing composition of said solid composition of taxane, and a kit for the injectable formulation of taxane” (ERIOCHEM S.A., priority 2006, published 2009).

Assay: Laboratory tests of direct dissolution in tensoactives
Type: physicochemical

Direct dissolution in pure polysorbate 80 (pure polysorbate 80): cannot be dissolved directly
Direct dissolution in tensoactive aqueous solution (tensoactive aqueous solution (aqueous Solutol HS15 for the solid composition), no organic solvent): cannot be dissolved directly
Compound: CC(=O)O[C@@]12CO[C@@H]1C[C@H](O)[C@@]1(C)C(=O)[C@H](O)C3=C(C)[C@@H](OC(=O)[C@H](O)[C@@H](NC(=O)OC(C)(C)C)c4ccccc4)C[C@@](O)([C@@H](OC(=O)c4ccccc4)[C@H]21)C3(C)C [trihydrate docetaxel, docetaxel]
